In ChEMBL document CHEMBL5465560, “Selectivity Literature for EUbOPEN Chemogenomic Library” (2024):
One block for each molecule: values may come before it.

What was measured:
[1] = molecular target: Ribosomal protein S6 kinase alpha-4 (Homo sapiens) (UniProt O75676); experiment: Selectivity interaction (Ambit KINOMEscan and KiNATiv profiling in Jurkat cells) EUB0000090b RPS6KA4; type: cell-based; settings: at 1 µM
[2] = molecular target: Mitogen-activated protein kinase 6 (Homo sapiens) (UniProt Q16659); experiment: Selectivity interaction (KinomeScan (DiscoverX)) EUB0001079a MAPK6; settings: at 1 µM
[3] = molecular target: T1, Serine/threonine-protein kinase 36 (Homo sapiens) (UniProt Q9NRP7); experiment: Selectivity interaction (KinomeScan (DiscoverX)) EUB0001079a STK36; settings: at 1 µM
T1 sequence (whole entry): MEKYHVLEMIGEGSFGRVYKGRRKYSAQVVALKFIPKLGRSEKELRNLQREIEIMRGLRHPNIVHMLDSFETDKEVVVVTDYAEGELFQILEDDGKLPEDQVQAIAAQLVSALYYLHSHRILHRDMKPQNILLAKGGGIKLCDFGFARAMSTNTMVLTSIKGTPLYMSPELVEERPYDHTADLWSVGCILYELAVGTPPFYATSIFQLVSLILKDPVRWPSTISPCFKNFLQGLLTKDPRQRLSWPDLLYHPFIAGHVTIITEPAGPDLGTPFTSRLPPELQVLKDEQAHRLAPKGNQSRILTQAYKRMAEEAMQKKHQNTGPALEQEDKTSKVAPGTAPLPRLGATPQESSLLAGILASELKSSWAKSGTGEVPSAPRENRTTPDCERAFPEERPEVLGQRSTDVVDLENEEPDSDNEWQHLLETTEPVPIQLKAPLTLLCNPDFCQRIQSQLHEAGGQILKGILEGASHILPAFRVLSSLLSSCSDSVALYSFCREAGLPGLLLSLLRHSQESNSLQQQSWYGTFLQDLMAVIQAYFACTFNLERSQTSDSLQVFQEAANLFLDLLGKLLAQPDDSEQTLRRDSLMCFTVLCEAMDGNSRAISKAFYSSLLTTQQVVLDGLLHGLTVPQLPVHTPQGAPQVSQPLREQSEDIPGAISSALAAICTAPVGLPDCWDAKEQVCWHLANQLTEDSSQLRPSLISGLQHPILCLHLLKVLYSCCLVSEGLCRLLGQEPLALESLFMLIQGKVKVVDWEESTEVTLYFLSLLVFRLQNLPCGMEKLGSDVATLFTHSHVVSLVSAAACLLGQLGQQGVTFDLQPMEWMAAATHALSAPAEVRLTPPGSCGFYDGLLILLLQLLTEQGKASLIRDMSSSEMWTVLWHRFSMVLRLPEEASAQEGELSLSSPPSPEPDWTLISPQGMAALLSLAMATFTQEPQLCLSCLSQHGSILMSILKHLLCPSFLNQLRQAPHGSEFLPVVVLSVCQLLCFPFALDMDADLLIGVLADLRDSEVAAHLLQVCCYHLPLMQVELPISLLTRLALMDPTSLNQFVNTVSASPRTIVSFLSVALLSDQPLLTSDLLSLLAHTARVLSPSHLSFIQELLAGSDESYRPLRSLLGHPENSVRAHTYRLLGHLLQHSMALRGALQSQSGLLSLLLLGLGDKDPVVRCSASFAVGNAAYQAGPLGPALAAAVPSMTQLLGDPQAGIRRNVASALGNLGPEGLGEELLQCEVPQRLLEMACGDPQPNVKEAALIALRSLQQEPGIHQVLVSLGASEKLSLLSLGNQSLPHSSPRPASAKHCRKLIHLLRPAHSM

[4] = molecular target: Fibroblast growth factor receptor 2 (Homo sapiens) (UniProt P21802); experiment: Selectivity interaction (KinomeScan (DiscoverX)) EUB0000618a FGFR2; settings: at 10 µM
[5] = molecular target: Mitogen-activated protein kinase 4 (Homo sapiens) (UniProt P31152); experiment: Selectivity interaction (KinomeScan (DiscoverX)) EUB0000045b MAPK4
[6] = molecular target: T2, Mitogen-activated protein kinase 13 (Homo sapiens) (UniProt O15264); experiment: Selectivity interaction (KinomeScan (DiscoverX)) EUB0000595a MAPK13; settings: at 10 µM
T2 sequence (whole entry): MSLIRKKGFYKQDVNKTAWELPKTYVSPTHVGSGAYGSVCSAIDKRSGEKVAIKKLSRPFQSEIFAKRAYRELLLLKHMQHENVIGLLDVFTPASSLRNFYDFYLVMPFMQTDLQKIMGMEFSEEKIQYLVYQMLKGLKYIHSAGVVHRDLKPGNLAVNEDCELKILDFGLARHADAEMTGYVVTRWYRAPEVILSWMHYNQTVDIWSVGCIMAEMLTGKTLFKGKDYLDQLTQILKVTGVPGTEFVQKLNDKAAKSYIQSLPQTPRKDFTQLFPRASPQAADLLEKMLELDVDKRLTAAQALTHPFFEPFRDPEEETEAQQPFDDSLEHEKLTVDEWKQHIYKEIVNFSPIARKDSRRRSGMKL

[7] = molecular target: MAP kinase-activated protein kinase 3 (Homo sapiens) (UniProt Q16644); experiment: Selectivity interaction (Upstate Kinase Profiler service (Millipore)) EUB0000056c MAPKAPK3; settings: at 1 µM
[8] = molecular target: 5'-AMP-activated protein kinase catalytic subunit alpha-2 (Homo sapiens) (UniProt P54646); experiment: Selectivity interaction (ActivX KiNativ screen (kinase selectivity in THP-1 cell lysates)) EUB0000639a PRKAA2; type: subcellular; settings: lysate, at 5 µM
[9] = molecular target: Serine/threonine-protein kinase 10 (Homo sapiens) (UniProt O94804); experiment: Selectivity interaction (ActivX KiNativ screen (kinase selectivity in THP-1 cell lysates)) EUB0000639a STK10; type: subcellular; settings: lysate, at 0.01 µM
[10] = molecular target: Casein kinase II subunit alpha (Homo sapiens, UniProt P68400); experiment: Selectivity interaction (KinomeScan (DiscoverX)) EUB0000229b CSNK2A1; settings: at 10 µM
[11] = molecular target: Focal adhesion kinase 1 (Homo sapiens, UniProt Q05397); experiment: Selectivity interaction (KinomeScan (DiscoverX)) EUB0000666a PTK2; settings: at 10 µM
[12] = molecular target: Phosphorylase b kinase gamma catalytic chain, skeletal muscle/heart isoform (Homo sapiens) (UniProt Q16816); experiment: Selectivity interaction (KinomeScan (DiscoverX)) EUB0000666a PHKG1; settings: at 10 µM
[13] = molecular target: Calcium/calmodulin-dependent protein kinase type II subunit beta (Homo sapiens) (UniProt Q13554); experiment: Selectivity interaction (KinomeScan (DiscoverX)) EUB0000092b CAMK2B; settings: at 10 µM
Calcium/calmodulin-dependent protein kinase type II subunit beta (Homo sapiens), sequence (Q13554 whole entry): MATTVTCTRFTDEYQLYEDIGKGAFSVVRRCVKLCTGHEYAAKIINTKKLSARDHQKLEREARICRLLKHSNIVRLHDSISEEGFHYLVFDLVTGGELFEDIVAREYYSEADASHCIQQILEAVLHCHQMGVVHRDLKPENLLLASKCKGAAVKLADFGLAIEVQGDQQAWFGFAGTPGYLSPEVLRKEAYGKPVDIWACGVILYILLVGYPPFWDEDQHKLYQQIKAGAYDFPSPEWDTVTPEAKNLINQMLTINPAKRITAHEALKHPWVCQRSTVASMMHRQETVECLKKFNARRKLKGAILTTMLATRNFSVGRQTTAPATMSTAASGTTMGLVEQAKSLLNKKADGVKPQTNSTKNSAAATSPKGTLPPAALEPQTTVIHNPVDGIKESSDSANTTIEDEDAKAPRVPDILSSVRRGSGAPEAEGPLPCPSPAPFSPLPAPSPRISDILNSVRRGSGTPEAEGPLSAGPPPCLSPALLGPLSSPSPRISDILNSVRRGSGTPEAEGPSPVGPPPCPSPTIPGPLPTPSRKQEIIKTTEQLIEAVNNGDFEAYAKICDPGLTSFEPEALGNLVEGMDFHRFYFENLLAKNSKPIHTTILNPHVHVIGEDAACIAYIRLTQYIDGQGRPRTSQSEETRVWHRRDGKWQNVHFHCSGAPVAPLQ

Mitogen-activated protein kinase 4 (Homo sapiens), sequence (P31152 whole entry): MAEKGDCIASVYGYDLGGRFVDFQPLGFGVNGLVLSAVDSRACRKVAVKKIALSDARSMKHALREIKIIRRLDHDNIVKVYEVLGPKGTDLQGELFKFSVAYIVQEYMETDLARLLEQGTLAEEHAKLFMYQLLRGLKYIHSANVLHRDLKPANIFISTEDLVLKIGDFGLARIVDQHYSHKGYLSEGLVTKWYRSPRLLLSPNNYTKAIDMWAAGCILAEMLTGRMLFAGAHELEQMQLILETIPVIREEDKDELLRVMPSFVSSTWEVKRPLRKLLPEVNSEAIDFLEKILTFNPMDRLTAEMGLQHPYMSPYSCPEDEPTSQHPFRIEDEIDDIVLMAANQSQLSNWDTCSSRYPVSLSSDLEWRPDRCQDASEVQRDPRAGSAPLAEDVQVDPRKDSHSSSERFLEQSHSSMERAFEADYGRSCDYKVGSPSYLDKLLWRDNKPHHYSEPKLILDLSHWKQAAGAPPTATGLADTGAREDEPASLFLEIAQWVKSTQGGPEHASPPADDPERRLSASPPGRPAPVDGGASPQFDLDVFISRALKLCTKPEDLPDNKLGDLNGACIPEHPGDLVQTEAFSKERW
MAP kinase-activated protein kinase 3 (Homo sapiens), sequence (Q16644 whole entry, looked up): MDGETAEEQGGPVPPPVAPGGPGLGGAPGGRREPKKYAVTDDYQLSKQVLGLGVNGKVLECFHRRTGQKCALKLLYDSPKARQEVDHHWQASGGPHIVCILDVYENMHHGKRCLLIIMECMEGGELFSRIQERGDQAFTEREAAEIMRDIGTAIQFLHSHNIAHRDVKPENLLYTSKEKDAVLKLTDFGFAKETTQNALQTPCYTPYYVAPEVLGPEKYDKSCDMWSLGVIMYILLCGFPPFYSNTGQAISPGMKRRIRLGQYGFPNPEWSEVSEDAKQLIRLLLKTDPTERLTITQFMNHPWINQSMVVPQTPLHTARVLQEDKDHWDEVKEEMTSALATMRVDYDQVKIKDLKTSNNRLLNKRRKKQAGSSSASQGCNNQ
Serine/threonine-protein kinase 10 (Homo sapiens), sequence (O94804 whole entry, looked up): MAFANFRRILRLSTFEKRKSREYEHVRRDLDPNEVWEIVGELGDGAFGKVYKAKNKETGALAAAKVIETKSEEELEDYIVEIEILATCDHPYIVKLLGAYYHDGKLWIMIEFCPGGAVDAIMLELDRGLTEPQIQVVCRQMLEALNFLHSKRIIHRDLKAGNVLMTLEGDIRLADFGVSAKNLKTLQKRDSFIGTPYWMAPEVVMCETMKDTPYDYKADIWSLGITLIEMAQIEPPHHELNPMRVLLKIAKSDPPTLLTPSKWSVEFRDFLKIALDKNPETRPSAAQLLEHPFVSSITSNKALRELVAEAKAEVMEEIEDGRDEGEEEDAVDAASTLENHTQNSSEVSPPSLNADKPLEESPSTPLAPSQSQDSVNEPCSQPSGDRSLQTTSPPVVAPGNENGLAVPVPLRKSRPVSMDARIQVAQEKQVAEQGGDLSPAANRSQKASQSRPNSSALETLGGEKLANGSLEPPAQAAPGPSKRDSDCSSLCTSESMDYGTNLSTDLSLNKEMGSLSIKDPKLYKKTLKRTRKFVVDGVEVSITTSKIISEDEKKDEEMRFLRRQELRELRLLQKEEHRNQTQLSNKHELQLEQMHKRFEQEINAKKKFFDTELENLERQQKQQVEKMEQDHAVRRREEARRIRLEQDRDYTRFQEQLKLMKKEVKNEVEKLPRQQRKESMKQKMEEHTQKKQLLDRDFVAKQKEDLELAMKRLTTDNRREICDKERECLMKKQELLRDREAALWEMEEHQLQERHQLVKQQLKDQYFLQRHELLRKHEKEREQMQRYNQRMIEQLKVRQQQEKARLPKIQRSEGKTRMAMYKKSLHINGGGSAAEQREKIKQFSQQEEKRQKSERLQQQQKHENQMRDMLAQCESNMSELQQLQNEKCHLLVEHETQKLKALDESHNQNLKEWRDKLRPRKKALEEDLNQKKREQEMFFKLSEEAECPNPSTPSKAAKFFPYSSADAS
Casein kinase II subunit alpha, sequence (P68400 whole entry, looked up): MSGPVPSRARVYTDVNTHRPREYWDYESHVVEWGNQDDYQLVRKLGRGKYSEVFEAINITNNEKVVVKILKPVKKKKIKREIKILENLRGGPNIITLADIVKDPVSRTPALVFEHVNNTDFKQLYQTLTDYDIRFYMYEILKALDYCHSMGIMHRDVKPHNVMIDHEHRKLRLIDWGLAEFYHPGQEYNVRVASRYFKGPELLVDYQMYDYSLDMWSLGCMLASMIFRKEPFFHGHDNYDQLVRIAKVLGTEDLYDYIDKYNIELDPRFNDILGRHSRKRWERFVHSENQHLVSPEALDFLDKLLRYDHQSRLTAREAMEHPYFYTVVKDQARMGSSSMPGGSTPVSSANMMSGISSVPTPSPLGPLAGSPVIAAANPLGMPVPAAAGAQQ
Phosphorylase b kinase gamma catalytic chain, skeletal muscle/heart isoform (Homo sapiens), sequence (Q16816 whole entry, looked up, canonical isoform): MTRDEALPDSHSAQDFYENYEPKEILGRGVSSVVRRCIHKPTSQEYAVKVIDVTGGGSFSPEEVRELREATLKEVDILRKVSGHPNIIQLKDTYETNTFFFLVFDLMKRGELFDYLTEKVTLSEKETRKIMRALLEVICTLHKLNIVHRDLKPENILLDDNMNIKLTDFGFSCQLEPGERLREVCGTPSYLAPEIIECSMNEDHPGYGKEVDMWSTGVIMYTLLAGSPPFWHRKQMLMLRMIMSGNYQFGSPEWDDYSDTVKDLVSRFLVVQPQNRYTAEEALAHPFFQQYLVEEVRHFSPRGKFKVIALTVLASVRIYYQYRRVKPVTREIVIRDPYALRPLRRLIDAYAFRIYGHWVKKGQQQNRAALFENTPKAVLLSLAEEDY
Ribosomal protein S6 kinase alpha-4 (Homo sapiens), sequence (O75676 whole entry, looked up): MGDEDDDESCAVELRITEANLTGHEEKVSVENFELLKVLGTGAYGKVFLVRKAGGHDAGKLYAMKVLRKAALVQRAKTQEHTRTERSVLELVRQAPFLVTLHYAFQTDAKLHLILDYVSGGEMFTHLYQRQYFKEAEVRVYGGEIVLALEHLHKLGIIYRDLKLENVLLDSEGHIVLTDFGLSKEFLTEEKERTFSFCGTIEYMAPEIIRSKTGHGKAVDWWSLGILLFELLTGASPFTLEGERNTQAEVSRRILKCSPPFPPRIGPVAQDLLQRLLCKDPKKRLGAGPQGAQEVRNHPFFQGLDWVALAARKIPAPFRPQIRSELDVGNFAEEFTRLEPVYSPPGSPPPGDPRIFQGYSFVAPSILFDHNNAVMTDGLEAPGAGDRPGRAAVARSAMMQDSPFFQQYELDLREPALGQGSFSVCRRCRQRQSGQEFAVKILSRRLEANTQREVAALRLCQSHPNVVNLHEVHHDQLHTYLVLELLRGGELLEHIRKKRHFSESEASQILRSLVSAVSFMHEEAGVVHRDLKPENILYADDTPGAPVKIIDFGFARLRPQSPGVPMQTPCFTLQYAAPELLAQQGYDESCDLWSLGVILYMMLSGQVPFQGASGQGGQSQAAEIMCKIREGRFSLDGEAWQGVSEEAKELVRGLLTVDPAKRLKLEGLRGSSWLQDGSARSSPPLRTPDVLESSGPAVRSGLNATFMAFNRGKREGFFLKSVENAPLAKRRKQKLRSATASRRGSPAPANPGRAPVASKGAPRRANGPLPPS
Fibroblast growth factor receptor 2 (Homo sapiens), sequence (P21802 22-821 limits assumed): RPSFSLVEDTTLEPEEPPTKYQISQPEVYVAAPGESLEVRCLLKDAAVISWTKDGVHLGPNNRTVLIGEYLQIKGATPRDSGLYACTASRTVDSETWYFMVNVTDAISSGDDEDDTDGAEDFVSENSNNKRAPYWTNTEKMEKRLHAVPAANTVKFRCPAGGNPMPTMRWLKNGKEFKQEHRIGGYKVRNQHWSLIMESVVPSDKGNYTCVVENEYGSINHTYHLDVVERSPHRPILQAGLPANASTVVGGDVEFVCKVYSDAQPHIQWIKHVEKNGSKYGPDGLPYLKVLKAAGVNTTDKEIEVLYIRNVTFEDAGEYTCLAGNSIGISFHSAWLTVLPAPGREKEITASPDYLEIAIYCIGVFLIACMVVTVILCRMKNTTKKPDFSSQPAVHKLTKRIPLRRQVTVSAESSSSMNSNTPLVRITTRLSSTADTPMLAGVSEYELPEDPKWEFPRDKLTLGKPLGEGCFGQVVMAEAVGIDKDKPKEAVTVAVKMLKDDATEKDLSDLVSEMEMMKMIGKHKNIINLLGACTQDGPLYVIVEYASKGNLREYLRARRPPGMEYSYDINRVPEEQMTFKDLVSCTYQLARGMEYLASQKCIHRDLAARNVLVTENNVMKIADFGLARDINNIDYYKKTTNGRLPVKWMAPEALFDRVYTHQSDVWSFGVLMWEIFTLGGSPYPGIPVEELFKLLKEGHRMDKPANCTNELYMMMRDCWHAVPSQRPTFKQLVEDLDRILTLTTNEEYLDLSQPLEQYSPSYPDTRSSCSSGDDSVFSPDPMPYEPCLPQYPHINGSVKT

Structure (SMILES): CN(C)C/C=C/C(=O)Nc1ccc(C(=O)N2CCCC(Nc3ncc(Cl)c(-c4c[nH]c5ccccc45)n3)C2)cc1 (centres undefined)
% of control [1]: 93%

Structure (SMILES): Nc1cnc(N2CCc3cc(S(=O)(=O)Nc4c(F)cc(Cl)cc4F)cc(N4CCCC4=O)c32)nc1 [TP-020n]
% of control [2]: 100%
% of control [3]: 98%

Structure (SMILES): O[C@H]1CC[C@H](Nc2ncc3nc(Nc4c(F)cc(F)cc4F)n([C@H]4CCOC4)c3n2)CC1
% of control [4]: 83%

Structure (SMILES): C=CC(=O)Nc1cc(-n2c(=O)ccc3cnc4ccc(-c5ccc(NS(C)(=O)=O)cc5)cc4c32)ccc1C
% of control ([5]; at 1 µM): 91%
% of control ([5]; at 10 µM): 100%

Structure (SMILES): COCC(=O)NC/C=C/c1ccc2ncnc(Nc3ccc(Oc4ccc(C)nc4)c(C)c3)c2c1 [CP-724714]
% of control [6]: 100%

% of inhibition [7]: 89%
Structure (SMILES): Cc1ccc(-c2ccc3c(ccc4sc5c(c43)NC[C@@H](C)NC5=O)n2)cn1

% of inhibition [8]: 18.6%
% of inhibition [9]: -34.8%
Structure (SMILES): CC[C@@H]1[C@H](F)C(=O)N[C@@H]1COc1nccc2cc(C(N)=O)c(OC)cc12 [ZIMLOVISERTIB]

Structure (SMILES): COc1cc(N(C)c2ccnc3ccc(C(F)(F)F)cc23)cc(OC)c1OC
% binding [10]: 67%

Structure (SMILES): O=C(NOC[C@H](O)CO)c1ccc(F)c(F)c1Nc1ccc(I)cc1F
% of control [11]: 85%
% of control [12]: 100%

Structure (SMILES): CCC(=O)N1CCN(c2ccc(-n3c(=O)ccc4cnc5ccc(-c6cnc7ccccc7c6)cc5c43)cc2C(F)(F)F)CC1
% of control [13]: 100%
